The text below walks through data of patent US20080103162A1, “Antipruritics” (priority 2001, published 2008).

Assay type in all cases: in vivo
Test [1] relates to male ICR mice. Kind of test: eye scratching behavior induced by instillation of serotonin (Test Example 3). Conditions: instillation of 10 μl of compound five minutes before 10 μl of 1% serotonin hydrochloride in right eye, FIG. 5. Here is the method:
After the instillation of 10 μl of 1% serotonin hydrochloride (hereinafter referred to as serotonin) in the right eye of 4-6 weeks-old male ICR mice, the number of scratching behavior in the vicinity of the eye induced by the instillation of serotonin for 10 minutes. […] Five minutes before the instillation of serotonin, the instillation of 10 μl of the compound was performed. In a control group, the instillation of distilled water was performed.

Test [2] concerns male ICR mice. Kind of test: spontaneous scratching behavior of mice with cutaneous barrier disruption (Test Example 4). Conditions: 0.1% in 100% ethanol, applied (100 μl) in vicinity of shaved portion, before vs after application, FIG. 6. Here is the method: The rostral back portion of 5 weeks-old male ICR mice was shaved under etherization, and then cutaneous barrier was disrupted by carrying out a treatment of applying a mixed solution of acetone and ether (1:1) to the shaved portion and applying distilled water twice a day every day (10 days). […] The compound was applied (100 μl) in the vicinity of the shaved portion.

A further test has as its system male ddY mice. Kind of test: compound 48/80-induced scratching behavior, intravenous administration (Test Example 1). The note with it: intravenously administered five minutes before compound 48/80 (50 μg/0.1 ml, subcutaneous, back), FIG. 1 to FIG. 3.
In the next test the test system is wild type mice. Kind of test: compound 48/80-induced scratching behavior in wild type mice (Test Example 2). The note with it: wild type mice (backcrossed with C57BL/6J); intravenous, five minutes before compound 48/80; FIG. 4(a).
Test [3] deals with nociceptine receptor defective mice. Kind of test: compound 48/80-induced scratching behavior in nociceptine receptor defective mice (Test Example 2). Conditions: intravenous, five minutes before compound 48/80, FIG. 4(b).

`Cc1ccc2nc(NC(=O)c3ccc(Cl)cc3)nc(N[C@H]3CCCC[C@H]3NC(=N)N)c2c1.Cl.Cl` [compound D, (1R,2S)—N-amidino-2-{[2-(4-chlorobenzoylamino)-6-methylquinazolin-4-yl]amino}cyclohexylamine dihydrochloride]: in the test on male ICR mice [1], the “suppression of eye scratching behavior induced by instillation of serotonin (number of scratching behavior for 10 minutes)” value is given as “strongly suppressed”. The “suppression of spontaneous scratching behavior induced by cutaneous barrier disruption (number of scratching behavior for 30 minutes)” value in the test on male ICR mice [2] is recorded as “strongly suppressed”.

On to `COc1ccc2nc(NC(=O)c3ccc(Cl)cc3)nc(N[C@H]3CCCC[C@H]3NC(=N)N)c2c1.Cl.Cl` [compound A, (1R,2S)—N-amidino-2-[2-(4-chlorobenzoylamino)-6-methoxyquinazolin-4-yl]aminocyclohexylamine dihydrochloride], for which the “scratching behavior suppressing effect (number of scratching behavior for 30 minutes)” value in the test on male ddY mice is “strong scratching behavior suppressing effect”; with wild type mice, “strong scratching behavior suppressing effect”; in test [3] it was “completely disappeared”.

With `CCc1ccc(OCc2ccccc2C(=O)Nc2ccc3nc(C)cc(N)c3c2)cc1.Cl` [compound C, N-(4-amino-2-methyl-6-quinolyl)-2-[(4-ethylphenoxy)methyl]benzamide hydrochloride, reference compound], in the test with male ddY mice, the “scratching behavior suppressing effect (number of scratching behavior for 30 minutes)” value is recorded as “strong scratching behavior suppressing effect”.
